Measured values taken from ChEMBL document CHEMBL4715777, “Synthesis and topoisomerases inhibitory activity of heteroaromatic chalcones” (Bioorg Med Chem, 2016).
Where a name gives a salt, the structure may show the parent alone.

Tests used:
[1] = test system: MDA-MB-468; assay: Cytotoxicity against human MDA-MB-468 cells assessed as cell growth inhibition measured after 2 days by cell counting kit-8 assay; assay type: functional, cell-based; conditions: MDA-MB-468, 48 h
[2] = target: DNA topoisomerase 2-alpha (Homo sapiens) (UniProt P11388); assay: Inhibition of human DNA topoisomerase 2alpha assessed as decrease in relaxation of supercoiled pBR322 plasmid DNA at 100 uM using supercoiled pBR322 plasmid DNA as substrate incubated for 30 mins in presence of ATP by ethidium bromide staining-based UV imaging analysis relative to control
[3] = test system: MDA-MB-231; assay: Cytotoxicity against human MDA-MB-231 cells assessed as cell growth inhibition measured after 2 days by cell counting kit-8 assay; assay type: functional, cell-based; conditions: MDA-MB-231, 48 h
[4] = test system: T47D; assay: Cytotoxicity against human T47D cells assessed as cell growth inhibition measured after 2 days by cell counting kit-8 assay; assay type: functional, cell-based; conditions: 48 h
[5] = target: T1, DNA topoisomerase 1 (Homo sapiens) (UniProt P11387); assay: (§1) Inhibition of recombinant human DNA topoisomerase 1 expressed in baculovirus expression system assessed as decrease in relaxation of supercoiled pBR322 plasmid DNA at 100 uM using supercoiled pBR322 plasmid DNA as substrate incubated for 30 mins by ethidium bromide staining-based UV imaging analysis relative to control
T1 sequence (whole entry): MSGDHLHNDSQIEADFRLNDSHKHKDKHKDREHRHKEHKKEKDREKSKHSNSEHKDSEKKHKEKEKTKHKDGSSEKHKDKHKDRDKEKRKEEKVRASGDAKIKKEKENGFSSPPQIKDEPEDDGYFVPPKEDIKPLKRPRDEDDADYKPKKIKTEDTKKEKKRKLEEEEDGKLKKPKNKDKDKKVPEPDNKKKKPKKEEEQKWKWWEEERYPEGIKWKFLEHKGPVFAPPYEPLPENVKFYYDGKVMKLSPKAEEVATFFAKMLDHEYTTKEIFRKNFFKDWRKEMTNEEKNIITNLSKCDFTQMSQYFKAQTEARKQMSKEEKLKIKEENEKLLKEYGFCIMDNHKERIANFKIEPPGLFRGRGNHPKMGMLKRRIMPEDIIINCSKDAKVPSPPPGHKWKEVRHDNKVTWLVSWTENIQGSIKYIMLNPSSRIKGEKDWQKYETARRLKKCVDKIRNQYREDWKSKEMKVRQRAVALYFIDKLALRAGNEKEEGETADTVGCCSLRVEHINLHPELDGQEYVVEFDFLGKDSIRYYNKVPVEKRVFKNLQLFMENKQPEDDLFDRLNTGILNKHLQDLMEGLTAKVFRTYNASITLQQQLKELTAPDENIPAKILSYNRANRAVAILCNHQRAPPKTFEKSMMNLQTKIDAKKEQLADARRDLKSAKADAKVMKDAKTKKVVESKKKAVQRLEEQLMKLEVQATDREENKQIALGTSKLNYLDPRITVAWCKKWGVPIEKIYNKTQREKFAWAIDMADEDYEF

[6] = target: T1, DNA topoisomerase 1 (Homo sapiens); assay: as §1, with “20” for “100”
[7] = target: DNA topoisomerase 2-alpha (Homo sapiens) (UniProt P11388); assay: Inhibition of human DNA topoisomerase 2alpha assessed as decrease in relaxation of supercoiled pBR322 plasmid DNA at 20 uM using supercoiled pBR322 plasmid DNA as substrate incubated for 30 mins in presence of ATP by ethidium bromide staining-based UV imaging analysis relative to control

DNA topoisomerase 2-alpha (Homo sapiens), sequence (P11388 whole entry): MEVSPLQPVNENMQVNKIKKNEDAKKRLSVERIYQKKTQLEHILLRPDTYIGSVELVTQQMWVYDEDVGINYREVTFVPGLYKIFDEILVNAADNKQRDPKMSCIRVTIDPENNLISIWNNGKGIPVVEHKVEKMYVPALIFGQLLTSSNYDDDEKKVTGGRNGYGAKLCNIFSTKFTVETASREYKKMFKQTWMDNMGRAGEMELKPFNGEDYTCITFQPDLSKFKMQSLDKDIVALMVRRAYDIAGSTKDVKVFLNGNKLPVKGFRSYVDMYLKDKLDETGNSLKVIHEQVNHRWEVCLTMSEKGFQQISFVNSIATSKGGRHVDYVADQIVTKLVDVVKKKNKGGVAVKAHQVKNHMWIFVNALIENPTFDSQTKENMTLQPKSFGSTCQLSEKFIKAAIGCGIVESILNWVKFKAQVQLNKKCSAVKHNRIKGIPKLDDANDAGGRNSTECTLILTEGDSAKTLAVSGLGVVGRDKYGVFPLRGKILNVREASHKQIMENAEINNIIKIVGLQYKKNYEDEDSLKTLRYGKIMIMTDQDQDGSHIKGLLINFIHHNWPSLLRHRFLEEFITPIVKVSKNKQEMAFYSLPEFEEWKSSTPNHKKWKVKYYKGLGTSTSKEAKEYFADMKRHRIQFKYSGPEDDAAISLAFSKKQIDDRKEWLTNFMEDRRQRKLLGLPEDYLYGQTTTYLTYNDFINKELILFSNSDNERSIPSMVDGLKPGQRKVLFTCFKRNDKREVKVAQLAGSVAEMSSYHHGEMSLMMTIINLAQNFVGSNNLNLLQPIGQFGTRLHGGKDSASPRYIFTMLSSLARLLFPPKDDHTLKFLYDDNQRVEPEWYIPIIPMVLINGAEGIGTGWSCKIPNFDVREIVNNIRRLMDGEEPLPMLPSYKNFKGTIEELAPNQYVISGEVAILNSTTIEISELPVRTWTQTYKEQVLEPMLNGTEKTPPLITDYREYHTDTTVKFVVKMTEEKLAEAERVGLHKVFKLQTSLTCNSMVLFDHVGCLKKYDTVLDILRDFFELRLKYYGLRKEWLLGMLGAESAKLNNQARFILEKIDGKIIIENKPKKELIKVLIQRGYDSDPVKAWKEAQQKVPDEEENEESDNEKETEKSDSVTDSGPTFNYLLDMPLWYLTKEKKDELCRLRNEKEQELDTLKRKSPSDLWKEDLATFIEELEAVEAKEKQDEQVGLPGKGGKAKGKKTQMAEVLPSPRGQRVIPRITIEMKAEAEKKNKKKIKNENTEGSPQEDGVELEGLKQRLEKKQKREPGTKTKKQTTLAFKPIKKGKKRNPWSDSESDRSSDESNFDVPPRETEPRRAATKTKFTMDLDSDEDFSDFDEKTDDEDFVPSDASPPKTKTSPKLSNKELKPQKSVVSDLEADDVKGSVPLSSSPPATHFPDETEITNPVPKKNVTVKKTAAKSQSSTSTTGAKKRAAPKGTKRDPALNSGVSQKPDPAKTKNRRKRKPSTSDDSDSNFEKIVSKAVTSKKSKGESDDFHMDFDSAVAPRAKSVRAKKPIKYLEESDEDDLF

Row | SMILES | IC50 [1] | inhibition [2] | IC50 [3] | IC50 [4] | inhibition [5] | inhibition [6] | inhibition [7]
1 | O=C(/C=C/c1cccs1)c1ccc(OCC2CS2)cc1 (centres undefined) | 5.27 µM | 0% | 16.7 µM | 11.1 µM | 14.5% | – | –
2 | O=C(/C=C/c1ccoc1)c1ccc(OCC2CO2)cc1 (centres undefined) | 16.5 µM | 0.3% | 26.2 µM | 20.6 µM | 5.6% | – | –
3 | O=C(/C=C/c1ccco1)c1ccc(OCC2CO2)cc1 (centres undefined) | 48.9 µM | 6.6% | 47.1 µM | 17.7 µM | 36.8% | 0% | –
4 | O=C(/C=C/c1ccc(OCC(O)CCl)cc1)c1ccco1 (centres undefined) | 9.53 µM | 0% | > 50 µM | > 50 µM | 1.8% | – | –
5 | O=C(/C=C/c1cccs1)c1ccc(OCC2CO2)cc1 (centres undefined) | 17.2 µM | 0.6% | 28.3 µM | 17.8 µM | 0% | – | –
6 | O=C(/C=C/c1ccc(OCC2CO2)cc1)c1ccco1 (centres undefined) | 17.3 µM | 0% | 22.2 µM | 11.2 µM | 0% | – | –
7 | O=C(/C=C/c1ccsc1)c1ccc(OCC2CS2)cc1 (centres undefined) | 23.8 µM | 0% | 50 µM | 9.32 µM | 100% | 0% | –
8 | O=C(/C=C/c1ccco1)c1ccccc1OCC1CS1 (centres undefined) | 8.26 µM | 95.4% | 32.2 µM | 6.61 µM | 61.2% | 6.4% | 30.6%
9 | O=C(/C=C/c1cccs1)c1cccc(OCC2CS2)c1 (centres undefined) | 6.98 µM | 3.7% | 19.9 µM | 10.6 µM | 0% | – | –
10 | COc1cc([C@@H]2c3cc4c(cc3[C@@H](O[C@@H]3O[C@@H]5CO[C@@H](C)O[C@H]5[C@H](O)[C@H]3O)[C@H]3COC(=O)[C@H]23)OCO4)cc(OC)c1O [ETOPOSIDE] | 0.86 µM | – | 9.13 µM | 1.96 µM | < 30% | – | –
11 | O=C(/C=C/c1ccco1)c1ccc(OCC2CS2)cc1 (centres undefined) | 4.32 µM | 94.5% | 18 µM | 9.44 µM | 63.8% | 0% | 24.7%
12 | O=C(/C=C/c1ccco1)c1cccc(OCC2CO2)c1 (centres undefined) | 37.3 µM | 67.6% | 27.8 µM | 22.7 µM | 28.5% | – | 0.3%
13 | O=C(/C=C/c1cccs1)c1cccc(OCC2CO2)c1 (centres undefined) | 16.3 µM | 3.9% | 15.4 µM | 14.6 µM | 2.7% | – | –
14 | O=C(/C=C/c1cccs1)c1ccccc1OCC1CS1 (centres undefined) | 4.35 µM | 0.4% | 17.9 µM | 7.01 µM | 0.4% | – | –
15 | O=C(/C=C/c1ccc(OCC(O)CCl)cc1)c1cccs1 (centres undefined) | 7.75 µM | 3.7% | 30.3 µM | 13 µM | 4.3% | – | –
16 | COc1cccc2c1C(=O)c1c(O)c3c(c(O)c1C2=O)C[C@@](O)(C(=O)CO)C[C@@H]3O[C@H]1C[C@H](N)[C@H](O)[C@H](C)O1 [DOXORUBICIN HYDROCHLORIDE] | 2.15 µM | – | 3.6 µM | 2.18 µM | – | – | –
17 | O=C(/C=C/c1ccco1)c1ccccc1OCC1CO1 (centres undefined) | 48.3 µM | 82.3% | 28.7 µM | 19.4 µM | 36.8% | 24.2% | 0%
18 | O=C(/C=C/c1cccs1)c1ccccc1OCC1CO1 (centres undefined) | 7.71 µM | 0.7% | 17.9 µM | 17.7 µM | 11.1% | – | –
19 | O=C(/C=C/c1ccsc1)c1ccc(OCC2CO2)cc1 (centres undefined) | 10.8 µM | 2.7% | 11.1 µM | 10.6 µM | 46.3% | 0% | –
20 | O=C(/C=C/c1ccc(OCC2CS2)cc1)c1ccco1 (centres undefined) | 8.35 µM | 0% | 24.1 µM | 10.6 µM | 3.3% | – | –
21 | CC[C@@]1(O)C(=O)OCc2c1cc1n(c2=O)Cc2cc3ccccc3nc2-1 [CAMPTOTHECIN] | 1.71 µM | < 30% | 8.83 µM | 3.67 µM | – | – | –
22 | O=C(/C=C/c1ccc(OCC2CS2)cc1)c1cccs1 (centres undefined) | 6.14 µM | 0% | 17.3 µM | 3.83 µM | 5.1% | – | –
23 | O=C(/C=C/c1ccc(OCC2CO2)cc1)c1cccs1 (centres undefined) | 6.3 µM | 0% | 13.9 µM | 10.6 µM | 34.1% | 15.6% | –
24 | O=C(/C=C/c1ccoc1)c1ccc(OCC2CS2)cc1 (centres undefined) | 5.3 µM | 0% | 19.3 µM | 12.3 µM | 0% | – | –
25 | O=C(/C=C/c1ccco1)c1cccc(OCC2CS2)c1 (centres undefined) | 7.23 µM | 90.4% | 28.9 µM | 10.4 µM | 75.4% | 1.3% | 29.8%
